Data on five compounds can be found in PMC8466554, “Heteroaryl-Ethylenes as New Lead Compounds in the Fight against High Priority Bacterial Strains” (Antibiotics, 2021).

In assay [1] the test system is S.aureus Mu50-VISA. As to the kind of experiment: MIC and MBC microtiter plate assay. The assay is classed as cell-based, Staphylococcus aureus.
The test system of assay [2] is S.aureus USA300-CAMRSA. Put plainly: MIC and MBC microtiter plate assay. It counts as cell-based, Staphylococcus aureus.
Assay [3] has as its system S.aureus ATCC29213-MSSA. Put plainly: MIC and MBC microtiter plate assay. The assay is classed as cell-based, Staphylococcus aureus.
The subject of assay [4] is S.aureus ATCC12598-MSSA. As to the kind of experiment: MIC and MBC microtiter plate assay, also with different inocula. The assay is classed as cell-based, Staphylococcus aureus.
Assay [5] has as its system E. faecalis ATCC51299-VRE. The assay is described as above. It counts as cell-based.
In assay [6] the test system is E. faecalis ATCC29212-VSE. Put plainly: MIC and MBC microtiter plate assay. The assay is classed as cell-based.
Assay [7] concerns A. baumannii ATCC17978. As to the kind of experiment: MIC and MBC microtiter plate assay, also with different inocula. The assay is classed as cell-based, Acinetobacter baumannii. Particulars: A. baumannii ATCC17978.
Assay [8] has as its system E. coli ATCC25922. The assay is described as above. The assay is classed as cell-based, Escherichia coli.
Assay [9] has as its system P. aeruginosa ATCC27853. As to the kind of experiment: MIC microtiter plate assay. The assay is classed as cell-based, Pseudomonas aeruginosa.
The subject of assay [10] is K. pneumoniae ATCC700603. Put plainly: MIC microtiter plate assay. The assay is classed as cell-based, Klebsiella pneumoniae.
Assay [11] relates to K. pneumoniae ATCC BAA-2814. As to the kind of experiment: MIC microtiter plate assay. It counts as cell-based, Klebsiella pneumoniae. Conditions: K. pneumoniae ATCC BAA-2814 (MDR strain).
The subject of assay [12] is Gram-positive and Gram-negative ATCC strains. Put plainly: MIC and MBC, summary over Gram-positive and Gram-negative strains. Conditions: by MBC/MIC ratio. The assay is classed as cell-based.
Assay [13] relates to CaCo-2 cells. As to the kind of experiment: MTT cytotoxicity assay. It counts as cell-based, human. Conditions: 24 h of incubation relative to untreated controls. Here is the method:
To evaluate the biological activity of the PBn series, compounds were screened for toxicity against the colon-rectal cancer cell line CaCo-2 (ATCC HTB-37). These human cancer cells were treated with solutions of the compounds at decreasing concentrations, starting from 100 μM up to 0.01 μM. The reference compound used for these assays was 5-Fluorouracil (5-Fu), a pyrimidine analogue belonging to the family of antimetabolite. […] Briefly, human colorectal adenocarcinoma cells (CaCo-2 HTB-37^TM Colorectal Adenocarcinoma Human, American Type Culture Collection, Manassas, VA, USA) were grown in Dulbecco’s MEM (DMEM) with 10% heat-inactivated fetal bovine serum, 2 mM L-Alanyl-L-Glutamine, penicillin-streptomycin (50 units-50 μg for mL) and incubated at 37 °C in a humidified atmosphere of 5% CO2, 95% air. CaCo-2 cells were plated in 96 well pates and incubated at 37 °C. The PBn series compounds and 5-FU were prepared as a 1 mM solution in 10 mL with 0.01% DMSO. Then, 24 h after plating, cells were treated with 20 μL of each solution. Untreated cells were used as controls. […] The results were read on a multiwell scanning spectrophotometer (AF2200 plate reader, Eppendorf, Milan, Italy), using a wavelength of 569 nm.
(Formazan colour is commonly taken as a measure of viable cells.)

The test system of assay [14] is Gram-positive control strains. As to the kind of experiment: MIC and MBC, summary over Gram-positive control strains. The assay is classed as cell-based, S. aureus and Enterococcus spp. Particulars: over the Gram-positive control strains (S. aureus and Enterococcus spp.).
Setting [15] is: S.aureus ATCC12598-MSSA, value in brackets.
[16] abbreviates: E. faecalis ATCC51299-VRE, value in brackets.

Where “and” joins values, the source holds several entries; their conditions need not be identical. Equal entries are not always repeated. Where two headings read alike, the source gives them in different places.

As usually defined, the MIC is the lowest concentration found to suppress growth. Low values mean greater potency, high ones weaker potency. Usually IC50 stands for the concentration needed to halve the response being measured. Low readings indicate greater potency, high ones weaker potency. Regarding `C[n+]1ccc(/C=C/c2ccc(-c3cc(Cl)ccc3Cl)o2)cc1.F[P-](F)(F)(F)(F)F` [PB6], the MIC in assay [1] amounted to 4 µg/mL; in assay [1] (value in brackets), 8.73 µM; in assay [2], 4 µg/mL; in assay [2] (value in brackets) it was 8.73 µM; in [3], 4 µg/mL; in [3] (value in brackets), 8.73 µM. Further, the MIC in [4] (S.aureus ATCC12598-MSSA) is 8 mg/L; in assay [4] (setting [15]) it was 17.46 µM; in assay [5] (E. faecalis ATCC51299-VRE), 32 mg/L; in [5] (setting [16]), 69.85 µM; in [6], 32 µg/mL; in [6] (value in brackets), 69.85 µM. The minimum inhibitory concentration (MIC) in [7] is 64 µg/mL; in [8], greater than 128 µg/mL; in [8] (value in brackets), greater than 279.40 µM; in [9], greater than 128 µg/mL; in assay [9] (value in brackets) it was greater than 279.40 µM; in assay [10], greater than 128 µg/mL. Besides, the MIC in [10] (value in brackets) was greater than 279.40 µM; in assay [11], greater than 128 µg/mL; in assay [11] (value in brackets) it was greater than 279.40 µM. In [12], the bactericidal/bacteriostatic activity entry is “strain-dependent bactericidal/bacteriostatic activity”. In [13], the IC50 is 6790 nM and 6800 nM.
Consider `C[n+]1c(/C=C/c2ccc(-c3ccccc3)s2)ccc2ccccc21.[I-]` [PB3], for which the MIC in assay [1] amounted to 32 µg/mL; in [1] (value in brackets) it was 70.28 µM; in [2], 2 µg/mL; in assay [2] (value in brackets), 4.39 µM; in [3], 4 µg/mL; in assay [3] (value in brackets), 8.78 µM. Besides, the MIC in [4] (S.aureus ATCC12598-MSSA) was found to be 8 mg/L; in assay [4] (setting [15]), 17.57 µM; in assay [5] (E. faecalis ATCC51299-VRE), 32 mg/L; in [5] (setting [16]), 70.28 µM; in assay [6], 32 µg/mL; in assay [6] (value in brackets), 70.28 µM. The MIC in assay [7] is 64 µg/mL; in assay [7] (value in brackets), 140.55 µM; in assay [8], 16 µg/mL; in assay [8] (value in brackets) it was 35.14 µM; in [9], greater than 128 µg/mL; in assay [9] (value in brackets), 281.10 µM. The MIC in assay [10] is greater than 128 µg/mL; in [10] (value in brackets) it was greater than 281.10 µM. Besides, 871 nM corresponded to half-maximal inhibition in assay [13] (IC50).
One may read the MBC as the lowest tested concentration that kills the bacteria rather than only halting them. The low end stands for more potent killing, the high end for less potent killing. For the compound `CC[n+]1ccc2c(c1)CCCC2=Cc1ccc(-c2ccc(Cl)cc2)o1.[I-]` [PB7], the minimum bactericidal concentration (MBC) in assay [1] is 16 µg/mL; in assay [1] (value in brackets), 34.50 µM; in assay [2] it was 32 µg/mL; in assay [2] (value in brackets) it was 69.00 µM; in assay [3] it was 4 µg/mL; in [3] (value in brackets) it was 8.63 µM. The MBC in assay [4] (S.aureus ATCC12598-MSSA) amounted to 8 µg/mL; in [4] (setting [15]), 17.25 µM; in assay [5] (E. faecalis ATCC51299-VRE) it was 128 µg/mL; in [5] (setting [16]), 276.02 µM; in assay [6] it was 128 µg/mL; in assay [6] (value in brackets), 276.02 µM. Moreover, the MIC in assay [1] is 16 µg/mL; in assay [1] (value in brackets) it was 34.50 µM; in [2] it was 2 µg/mL; in assay [2] (value in brackets) it was 4.31 µM; in [3], 4 µg/mL; in [3] (value in brackets) it was 8.63 µM. Moreover, the MIC in [4] (S. aureus ATCC12598, inoculum 1.00101 (1 × 10^1 CFU/mL)) is 2 mg/L and 4.31 μM; in assay [4] (S. aureus ATCC12598, inoculum 1.00102 (1 × 10^2 CFU/mL)), 4 mg/L and 8.63 μM; in assay [4] (S. aureus ATCC12598, inoculum 1.00103 (1 × 10^3 CFU/mL)) it was 8.63 μM and 4 mg/L; in [4] (S. aureus ATCC12598, inoculum 1.00104 (1 × 10^4 CFU/mL)) it was 4 mg/L and 8.63 μM; in assay [4] (S. aureus ATCC12598, inoculum 1.00105 (1 × 10^5 CFU/mL, standard)), 8 mg/L and 17.25 μM; in assay [4] (S. aureus ATCC12598, inoculum 1.00106 (1 × 10^6 CFU/mL)), 8 mg/L and 17.25 μM. Also, the MIC is 32 mg/L and 69.00 μM in assay [4] (S. aureus ATCC12598, inoculum 1.00107 (1 × 10^7 CFU/mL)); 8 mg/L in [4] (S.aureus ATCC12598-MSSA); 17.25 µM in [4] (setting [15]); 8 mg/L in assay [5] (E. faecalis ATCC51299-VRE); 17.25 µM in [5] (setting [16]); 8 mg/L and 17.25 μM in [5] (E. faecalis ATCC51299, inoculum 1.00101 (1 × 10^1 CFU/mL)). Further, the MIC was 8 mg/L and 17.25 μM in [5] (E. faecalis ATCC51299, inoculum 1.00102 (1 × 10^2 CFU/mL)); 8 mg/L and 17.25 μM in [5] (E. faecalis ATCC51299, inoculum 1.00103 (1 × 10^3 CFU/mL)); 8 mg/L and 17.25 μM in assay [5] (E. faecalis ATCC51299, inoculum 1.00104 (1 × 10^4 CFU/mL)); 8 mg/L and 17.25 μM in [5] (E. faecalis ATCC51299, inoculum 1.00105 (1 × 10^5 CFU/mL, standard)); 16 mg/L and 34.50 μM in assay [5] (E. faecalis ATCC51299, inoculum 1.00106 (1 × 10^6 CFU/mL)); 32 mg/L and 69.00 μM in assay [5] (E. faecalis ATCC51299, inoculum 1.00107 (1 × 10^7 CFU/mL)). In addition, the MIC in [6] worked out at 8 µg/mL; in [6] (value in brackets), 17.25 µM; in assay [7] it was 32 µg/mL; in assay [7] (value in brackets), 69.00 µM; in assay [8], 32 µg/mL; in [8] (value in brackets) it was 69.00 µM. The MIC in assay [9] was greater than 128 µg/mL; in [9] (value in brackets), greater than 276.02 µM; in assay [10] it was 128 µg/mL; in assay [10] (value in brackets), 276.02 µM; in assay [11] it was 64 µg/mL; in assay [11] (value in brackets), 138.01 µM. Besides, the MIC in [14] was no more than 16 µg/mL. The compound further came in with an IC50 in assay [13] of 1360 nM.
Turning to `CN(C)c1ccc(/C=C/c2ccc3ccccc3[n+]2C)cc1.[I-]` [PB1], the MIC came out at 32 µg/mL in [1]; 76.87 µM in assay [1] (value in brackets); 2 µg/mL in assay [2]; 4.80 µM in assay [2] (value in brackets); 4 µg/mL in [3]; 9.61 µM in [3] (value in brackets). Moreover, the minimal inhibitory concentration (MIC) was found to be 2 mg/L in [4] (S.aureus ATCC12598-MSSA); 4.80 µM in assay [4] (setting [15]); 32 mg/L in assay [5] (E. faecalis ATCC51299-VRE); 76.87 µM in assay [5] (setting [16]); 32 µg/mL in [6]; 76.87 µM in assay [6] (value in brackets). In addition, the MIC is 128 µg/mL in [7]; 307.47 µM in [7] (value in brackets); 16 µg/mL in assay [8]; 38.43 µM in assay [8] (value in brackets); greater than 128 µg/mL in assay [9]; greater than 307.47 µM in assay [9] (value in brackets). The MIC is greater than 128 µg/mL in assay [10], greater than 307.47 µM in assay [10] (value in brackets), greater than 128 µg/mL in assay [11] and greater than 307.47 µM in assay [11] (value in brackets). Moreover, the IC50 in [13] stood at 1200 nM.
`O=c1[nH]cc(F)c(=O)[nH]1` [5-FU, 5-Fluorouracil, reference compound]: the IC50 was 27400 nM in [13] and 27400 nM in assay [13] (Homo sapiens, Caco-2, 24 h).
